In brackets after ≈: the same amount, converted by molar mass. Activity calls are given as the source filed them.
Legend:
Rattus norvegicus [1] = assay: Analgesic activity in MIA induced Wistar rat assessed as differences in forces applied between rear left and rear right injured paws at 1 mg/kg, ip injection after 60 mins by KWB test; assay type: functional, organism-based
Cannabinoid receptor 2 [2] = biological target: T1, Cannabinoid receptor 2 (Homo sapiens, UniProt P34972); assay: Antagonist activity at TNF-alpha induced CB2R in human HC-OA cells assessed as decreased in IL-1beta mRNA production preincubated for 1 hr followed by TNF-alpha stimulation measured after 5 hrs by RT-PCR analysis; assay type: cell-based
Rattus norvegicus [3] = assay: Analgesic activity in MIA induced Wistar rat assessed as differences in forces applied between rear left and rear right injured paws at 1 mg/kg, ip injection after 60 mins in presence of AM-630 by KWB test; assay type: functional, organism-based
[4] = Cytotoxicity against human NHAC-kn assessed as reduction in cell viability at 7.5 uM after 7 days by Neutral red dye-based UV-visible spectrophotometer analysis (reference value: 73 +/- 8%); assay type: functional
Cannabinoid receptor 2 [5] = biological target: T1, Cannabinoid receptor 2; assay: Agonist activity at recombinant human CB2R expressed in CHOK1 cells assessed as inhibition of NKH477-stimulated intracellular cAMP levels after 30 mins by chemiluminescent detection based cAMP Hunter assay; assay type: functional, cell-based, CHO-K1
Rattus norvegicus [6] = assay: Analgesic activity in MIA induced Wistar rat assessed as hind limb withdrawal threshold at 1 mg/kg, ip injection after 300 mins by PAM test; assay type: functional, organism-based
[7] = Cytotoxicity against human NHAC-kn assessed as reduction in cell viability at 7.5 uM after 1 day by Neutral red dye-based UV-visible spectrophotometer analysis (reference value: 46 +/- 6%); assay type: functional
Cannabinoid receptor 2 [8] = biological target: T1, Cannabinoid receptor 2; assay: Displacement of [3H]-CP-55,940 from recombinant human CB2R expressed in HEK293 cell membranes
[9] = Induction of extracellular matrix production in human NHAC-kn cells assessed as sGAG/HYP level at 7.5 uM after 1 day by UV-visible spectrophotometer analysis (reference value: 0.9 +/- 0.1 ug); assay type: functional
[10] = Lipophilicity, log P of the compound by UV-vis spectra analysis; assay type: physicochemical; conditions: octanol/water
[11] = Induction of extracellular matrix production in human NHAC-kn cells assessed as sGAG/HYP level at 7.5 uM after 7 days by UV-visible spectrophotometer analysis (reference value: 0.8 +/- 0.2 ug); assay type: functional
[12] = Ionization Constants, pKa of the compound by UV-vis spectra analysis; assay type: physicochemical
[13] = Induction of extracellular matrix production in human NHAC-kn cells assessed as HYP level at 7.5 uM after 1 day by UV-visible spectrophotometer analysis (reference value: 9.9 +/- 0.3 ug); assay type: functional
Cannabinoid receptor 2 [14] = biological target: T1, Cannabinoid receptor 2; assay: Antagonist activity at TNF-alpha induced CB2R in human HC-OA cells assessed as decreased in IL-1beta mRNA production preincubated for 1 hr followed by TNF-alpha stimulation measured after 5 hrs in presence of AM-630 by RT-PCR analysis; assay type: cell-based
[15] = Induction of extracellular matrix production in human NHAC-kn cells assessed as HYP level at 7.5 uM after 7 days by UV-visible spectrophotometer analysis (reference value: 13.2 +/- 0.3 ug); assay type: functional
NIH3T3 = assay: Cytotoxicity against mouse NIH/3T3 assessed as reduction in cell viability after 1 to 14 days by Neutral red dye-based UV-visible spectrophotometer analysis; assay type: functional
[16] = Kinetic solubility of the compound at pH 1.0 by HPLC-UV method; assay type: physicochemical; conditions: buffer, read-out: Kinetic_solubility
[17] = Cytotoxicity against human NHAC-kn assessed as reduction in cell viability after 1 to 14 days by Neutral red dye-based UV-visible spectrophotometer analysis; assay type: functional
Rattus norvegicus [18] = assay: Analgesic activity in MIA induced Wistar rat assessed as hind limb withdrawal threshold at 1 mg/kg, ip injection after 300 mins in presence of AM-630 by PAM test; assay type: functional, organism-based
[19] = Cytotoxicity against human NHAC-kn assessed as reduction in cell viability at 7.5 uM after 14 days by Neutral red dye-based UV-visible spectrophotometer analysis (reference value: 100 +/- 11%); assay type: functional
Cannabinoid receptor 1 = Cannabinoid receptor 1 (Homo sapiens, UniProt P21554); assay: Displacement of [3H]-CP-55,940 from recombinant human CB1R expressed in HEK293 cell membranes
[20] = Induction of extracellular matrix production in human NHAC-kn cells assessed as HYP level at 7.5 uM after 14 days by UV-visible spectrophotometer analysis (reference value: 14.2 +/- 0.4 ug); assay type: functional
[21] = Kinetic solubility of the compound at pH 7.4 by HPLC-UV method; assay type: physicochemical; conditions: buffer, read-out: Kinetic_solubility
[22] = Induction of extracellular matrix production in human NHAC-kn cells assessed as sGAG level at 7.5 uM after 7 days by UV-visible spectrophotometer analysis (reference value: 11.2 +/- 0.4 ug); assay type: functional
[23] = Induction of extracellular matrix production in human NHAC-kn cells assessed as sGAG level at 7.5 uM after 14 days by UV-visible spectrophotometer analysis (reference value: 12.0 +/- 0.4 ug); assay type: functional
[24] = Induction of extracellular matrix production in human NHAC-kn cells assessed as sGAG level at 7.5 uM after 1 day by UV-visible spectrophotometer analysis (reference value: 9.3 +/- 0.2 ug); assay type: functional
[25] = Induction of extracellular matrix production in human NHAC-kn cells assessed as sGAG/HYP level at 7.5 uM after 14 days by UV-visible spectrophotometer analysis (reference value: 0.9 +/- 0.2 ug); assay type: functional

T1 sequence (P34972 whole entry): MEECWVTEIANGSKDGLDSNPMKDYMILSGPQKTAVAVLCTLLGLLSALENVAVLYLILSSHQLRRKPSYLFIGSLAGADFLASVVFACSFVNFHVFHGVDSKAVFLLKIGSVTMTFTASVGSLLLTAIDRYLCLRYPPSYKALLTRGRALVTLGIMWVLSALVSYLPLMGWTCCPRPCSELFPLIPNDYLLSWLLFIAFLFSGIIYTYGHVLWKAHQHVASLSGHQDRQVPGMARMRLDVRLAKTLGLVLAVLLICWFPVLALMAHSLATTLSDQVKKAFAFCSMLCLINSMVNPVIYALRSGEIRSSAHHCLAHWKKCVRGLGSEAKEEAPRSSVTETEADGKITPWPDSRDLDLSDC
Sequence of Cannabinoid receptor 1 (P21554 whole entry): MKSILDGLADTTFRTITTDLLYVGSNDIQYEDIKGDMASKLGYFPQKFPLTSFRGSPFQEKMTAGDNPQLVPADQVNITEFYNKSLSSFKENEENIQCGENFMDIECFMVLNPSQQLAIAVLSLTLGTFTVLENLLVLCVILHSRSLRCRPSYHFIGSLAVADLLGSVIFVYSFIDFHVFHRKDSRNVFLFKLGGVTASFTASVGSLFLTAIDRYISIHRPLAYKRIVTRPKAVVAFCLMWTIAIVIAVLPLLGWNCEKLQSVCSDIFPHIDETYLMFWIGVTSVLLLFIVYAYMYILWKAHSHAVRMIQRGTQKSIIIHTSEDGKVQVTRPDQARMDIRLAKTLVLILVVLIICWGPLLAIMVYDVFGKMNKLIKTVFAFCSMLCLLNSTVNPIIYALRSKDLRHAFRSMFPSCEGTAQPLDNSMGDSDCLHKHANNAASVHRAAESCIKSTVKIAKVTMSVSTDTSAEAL

**Q.** For `CCCCN1C(=O)C(C(=O)NC23CC4CC(CC(C4)C2)C3)=C(O)C2C1C=NN2C` (configuration not stated), which Activity (Rattus norvegicus [1]) is on record?
**A.** Active

**Q.** What about the Activity (Cannabinoid receptor 2 [2]) of the same compound?
**A.** Active

**Q.** What about the Activity (Rattus norvegicus [3]) of the same compound?
**A.** inactive

**Q.** And the Activity [4]?
**A.** 68%

**Q.** And the EC50 (Cannabinoid receptor 2 [5])?
**A.** 110 nM

**Q.** And the Activity (Rattus norvegicus [6])?
**A.** Active

**Q.** And the Activity [7]?
**A.** 51%

**Q.** And the Ki (Cannabinoid receptor 2 [8])?
**A.** 1.8 nM

**Q.** What about the Activity [9] of the same compound?
**A.** 0.9%

**Q.** And the logP [10]?
**A.** 5.3

**Q.** And the Activity [11]?
**A.** 1%

**Q.** What about the pKa [12] of the same compound?
**A.** 8

**Q.** And the Activity [13]?
**A.** 10.1%

**Q.** What about the Activity (Cannabinoid receptor 2 [14]) of the same compound?
**A.** inactive

**Q.** What about the Activity [15] of the same compound?
**A.** 12.9%

**Q.** And the IC50 (NIH3T3)?
**A.** 25000 nM

**Q.** What about the solubility kinetic [16] of the same compound?
**A.** 0.13 µg/mL (≈ 0.325 µM)

**Q.** And the IC50 [17]?
**A.** 12500 nM

**Q.** And the Activity (Rattus norvegicus [18])?
**A.** inactive

**Q.** And the Activity [19]?
**A.** 94%

**Q.** What about the Ki (Cannabinoid receptor 1) of the same compound?
**A.** 69 nM

**Q.** What about the Activity [20] of the same compound?
**A.** 13.9%

**Q.** And the solubility kinetic [21]?
**A.** 0.49 µg/mL (≈ 1.22 µM)

**Q.** What about the Activity [22] of the same compound?
**A.** 12.6%

**Q.** What about the Activity [23] of the same compound?
**A.** 14.2%

**Q.** What about the Activity [24] of the same compound?
**A.** 8.9%

**Q.** What about the Activity [25] of the same compound?
**A.** 1%

From ChEMBL document CHEMBL4616678, “Design, Synthesis, and Physicochemical and Pharmacological Profiling of 7-Hydroxy-5-oxopyrazolo[4,3-b]pyridine-6-carboxamide Derivatives with Antiosteoarthritic Activity In Vivo” (J Med Chem, 2020)
